From patent publication US8916702B2 (priority 2012, dated 2014) come the findings set out here.

As usually defined, the EC50 is the concentration at which the effect is half-maximal.

For the first experiment, the system named is HCV pseudoparticles (genotype 1a HCV E1 and E2 envelope, H77C isolate). Nature of the experiment: microbe, parasite or virus in culture. Format: cell-based. The following applies: Hepatitis C virus, Huh-7, 48 h, HCV pseudoparticle infection of Huh7 cells, luciferase 2 days after infection; average of duplicates.
On to `COC(=O)[C@H](CNC(=O)C(=O)NCc1cc(F)cc(F)c1)NC(=O)c1ccc(Nc2nc(NC3(c4ccc(Cl)cc4)CC3)nc(OCC(F)(F)F)n2)cc1` [Compound 1138], for which the concentration for a half-maximal effect (EC50) stood at 0.81 nM.
The same measure, in the same setting: to `COC(=O)[C@H](CNC(=O)C(=O)NCc1cccc(OC)c1)NC(=O)c1ccc(Nc2nc(NC3(c4ccc(Cl)cc4)CC3)nc(OCC(F)(F)F)n2)cc1` [Compound 1151] belongs 1.62 nM.
The same measure, in the same setting: for `COC(=O)[C@H](CNC(=O)C(=O)NCc1cc(F)ccc1F)NC(=O)c1ccc(Nc2nc(NC3(c4ccc(Cl)cc4)CC3)nc(OCC(F)(F)F)n2)cc1` [Compound 1154] the value was 1.07 nM; for `COc1ccc(CNC(=O)C(=O)NC[C@H](NC(=O)c2ccc(Nc3nc(NC4(c5ccc(Cl)cc5)CC4)nc(OCC(F)(F)F)n3)cc2)C(=O)O)cc1` [Compound 1167], 1.32 nM; for `COc1ccc(CNC(=O)C(=O)NC[C@H](NC(=O)c2ccc(Nc3nc(NC4(c5ccc(Cl)cc5)CC4)nc(OCC(F)(F)F)n3)cc2)C(=O)O)c(OC)c1` [Compound 1172], 9.26 nM.
Same read-out and setting: for `O=C(NCc1cc(F)cc(F)c1)C(=O)NC[C@H](NC(=O)c1ccc(Nc2nc(NC3(c4ccc(Cl)cc4)CC3)nc(OCC(F)(F)F)n2)cc1)C(=O)O` [Compound 1173] the value was 0.74 nM.

Still in this experiment, the particulars now being: Hepatitis C virus, Huh-7, 48 h, read-out: Activity (EC50 class), HCV pseudoparticle infection of Huh7 cells, luciferase 2 days after infection; EC50 expressed as class A/B.
For `COC(=O)[C@H](CNC(=O)C(=O)NCc1ccc(OC)cc1OC)NC(=O)c1ccc(Nc2nc(NC3(c4ccc(Cl)cc4)CC3)nc(OCC(F)(F)F)n2)cc1` [Compound 1137], the concentration for a half-maximal effect (EC50) lay in the range of 0.01 to 10 nM.
The same measure, in the same setting: to `COC(=O)[C@H](CNC(=O)C(=O)NCc1cc(F)cc(F)c1)NC(=O)c1ccc(Nc2nc(NC3(c4ccc(Cl)cc4)CC3)nc(OCC(F)(F)F)n2)cc1` [Compound 1138] belongs 0.01 to 10 nM; to `COC(=O)[C@H](CCNC(=O)C(=O)NCc1cccc(F)c1)NC(=O)c1ccc(Nc2nc(NC3(c4ccc(Cl)cc4)CC3)nc(OCC(F)(F)F)n2)cc1` [Compound 1139], 0.01 to 10 nM; to `COC(=O)[C@H](CCNC(=O)C(=O)NC1CCCCC1)NC(=O)c1ccc(Nc2nc(NC3(c4ccc(Cl)cc4)CC3)nc(OCC(F)(F)F)n2)cc1` [Compound 1140], 0.01 to 10 nM.
Same read-out and setting: for `COC(=O)[C@H](CCNC(=O)C(=O)NC1CCCCCC1)NC(=O)c1ccc(Nc2nc(NC3(c4ccc(Cl)cc4)CC3)nc(OCC(F)(F)F)n2)cc1` [Compound 1141] the value was 0.01 to 10 nM; for `COC(=O)[C@H](CCNC(=O)C(=O)NCc1ccccc1)NC(=O)c1ccc(Nc2nc(NC3(c4ccc(Cl)cc4)CC3)nc(OCC(F)(F)F)n2)cc1` [Compound 1142], 0.01 to 10 nM.
Still for that read-out and setting: for `COC(=O)[C@H](CCNC(=O)C(=O)NCC1CCCCC1)NC(=O)c1ccc(Nc2nc(NC3(c4ccc(Cl)cc4)CC3)nc(OCC(F)(F)F)n2)cc1` [Compound 1143] the value was 0.01 to 10 nM; for `COC(=O)[C@H](CCNC(=O)C(=O)NCc1ccc(OC)c(OC)c1)NC(=O)c1ccc(Nc2nc(NC3(c4ccc(Cl)cc4)CC3)nc(OCC(F)(F)F)n2)cc1` [Compound 1144], 0.01 to 10 nM.
In the case of `COC(=O)[C@H](CCNC(=O)C(=O)NCc1ccc(F)cc1)NC(=O)c1ccc(Nc2nc(NC3(c4ccc(Cl)cc4)CC3)nc(OCC(F)(F)F)n2)cc1` [Compound 1145], the EC50 lay within 0.01 to 10 nM.
For `COC(=O)[C@H](CCNC(=O)C(=O)NCc1ccc(OC)cc1)NC(=O)c1ccc(Nc2nc(NC3(c4ccc(Cl)cc4)CC3)nc(OCC(F)(F)F)n2)cc1` [Compound 1146], the concentration for a half-maximal effect (EC50) lay within 0.01 to 10 nM.
Regarding `COC(=O)[C@H](CCNC(=O)C(=O)NCc1ccc(OC)cc1OC)NC(=O)c1ccc(Nc2nc(NC3(c4ccc(Cl)cc4)CC3)nc(OCC(F)(F)F)n2)cc1` [Compound 1147], the EC50 lay within 0.01 to 10 nM.
Same read-out and setting: for `COC(=O)[C@H](CNC(=O)C(=O)NCc1cccc(F)c1F)NC(=O)c1ccc(Nc2nc(NC3(c4ccc(Cl)cc4)CC3)nc(OCC(F)(F)F)n2)cc1` [Compound 1148] the value was 0.01 to 10 nM.
The same measure, in the same setting: to `COC(=O)[C@H](CNC(=O)C(=O)NCC1CCCCC1)NC(=O)c1ccc(Nc2nc(NC3(c4ccc(Cl)cc4)CC3)nc(OCC(F)(F)F)n2)cc1` [Compound 1149] belongs 0.01 to 10 nM.
On the same count and under the same terms, for `COC(=O)[C@H](CNC(=O)C(=O)NCc1ccccc1OC)NC(=O)c1ccc(Nc2nc(NC3(c4ccc(Cl)cc4)CC3)nc(OCC(F)(F)F)n2)cc1` [Compound 1150] the value was 0.01 to 10 nM.
Consider `COC(=O)[C@H](CNC(=O)C(=O)NCc1cccc(OC)c1)NC(=O)c1ccc(Nc2nc(NC3(c4ccc(Cl)cc4)CC3)nc(OCC(F)(F)F)n2)cc1` [Compound 1151], for which the EC50 is 0.01 to 10 nM.
On the same count and under the same terms, for `COC(=O)[C@H](CNC(=O)C(=O)NCc1ccc(OC)c(OC)c1)NC(=O)c1ccc(Nc2nc(NC3(c4ccc(Cl)cc4)CC3)nc(OCC(F)(F)F)n2)cc1` [Compound 1152] the value was 0.01 to 10 nM; for `COC(=O)[C@H](CNC(=O)C(=O)NCc1ccc(OC)cc1)NC(=O)c1ccc(Nc2nc(NC3(c4ccc(Cl)cc4)CC3)nc(OCC(F)(F)F)n2)cc1` [Compound 1153], 0.01 to 10 nM.
For the compound `COC(=O)[C@H](CNC(=O)C(=O)NCc1cc(F)ccc1F)NC(=O)c1ccc(Nc2nc(NC3(c4ccc(Cl)cc4)CC3)nc(OCC(F)(F)F)n2)cc1` [Compound 1154], the 50% effective concentration (EC50) lay within 0.01 to 10 nM.
The same measure, in the same setting: for `COC(=O)[C@H](CCNC(=O)C(=O)NCc1ccccc1OC)NC(=O)c1ccc(Nc2nc(NC3(c4ccc(Cl)cc4)CC3)nc(OCC(F)(F)F)n2)cc1` [Compound 1155] the value was 0.01 to 10 nM; for `COC(=O)[C@H](CCNC(=O)C(=O)NCc1cccc(OC)c1)NC(=O)c1ccc(Nc2nc(NC3(c4ccc(Cl)cc4)CC3)nc(OCC(F)(F)F)n2)cc1` [Compound 1156], 0.01 to 10 nM.
On the same count and under the same terms, to `COC(=O)[C@H](CCNC(=O)C(=O)NCc1cc(F)ccc1F)NC(=O)c1ccc(Nc2nc(NC3(c4ccc(Cl)cc4)CC3)nc(OCC(F)(F)F)n2)cc1` [Compound 1157] belongs 0.01 to 10 nM; to `COC(=O)[C@H](CCNC(=O)C(=O)NCc1c(F)cccc1F)NC(=O)c1ccc(Nc2nc(NC3(c4ccc(Cl)cc4)CC3)nc(OCC(F)(F)F)n2)cc1` [Compound 1158], 0.01 to 10 nM; to `COC(=O)[C@H](CCNC(=O)C(=O)NCc1ccc(F)c(F)c1)NC(=O)c1ccc(Nc2nc(NC3(c4ccc(Cl)cc4)CC3)nc(OCC(F)(F)F)n2)cc1` [Compound 1159], 0.01 to 10 nM.
The same measure, in the same setting: to `COC(=O)[C@H](CCNC(=O)C(=O)NCc1cccc(F)c1F)NC(=O)c1ccc(Nc2nc(NC3(c4ccc(Cl)cc4)CC3)nc(OCC(F)(F)F)n2)cc1` [Compound 1160] belongs 0.01 to 10 nM; to `COC(=O)[C@H](CCNC(=O)C(=O)NCc1ccc(F)cc1F)NC(=O)c1ccc(Nc2nc(NC3(c4ccc(Cl)cc4)CC3)nc(OCC(F)(F)F)n2)cc1` [Compound 1161], 0.01 to 10 nM; to `O=C(NCc1cccc(F)c1)C(=O)NC[C@H](NC(=O)c1ccc(Nc2nc(NC3(c4ccc(Cl)cc4)CC3)nc(OCC(F)(F)F)n2)cc1)C(=O)O` [Compound 1163], 0.01 to 10 nM.
Consider `O=C(NCc1ccccc1)C(=O)NC[C@H](NC(=O)c1ccc(Nc2nc(NC3(c4ccc(Cl)cc4)CC3)nc(OCC(F)(F)F)n2)cc1)C(=O)O` [Compound 1164], for which the EC50 was in the range of 0.01 to 10 nM.
The same measure, in the same setting: for `COc1ccccc1CNC(=O)C(=O)NC[C@H](NC(=O)c1ccc(Nc2nc(NC3(c4ccc(Cl)cc4)CC3)nc(OCC(F)(F)F)n2)cc1)C(=O)O` [Compound 1165] the value was 0.01 to 10 nM; for `O=C(NCc1ccc(F)cc1)C(=O)NC[C@H](NC(=O)c1ccc(Nc2nc(NC3(c4ccc(Cl)cc4)CC3)nc(OCC(F)(F)F)n2)cc1)C(=O)O` [Compound 1166], 0.01 to 10 nM.
On the same count and under the same terms, for `COc1ccc(CNC(=O)C(=O)NC[C@H](NC(=O)c2ccc(Nc3nc(NC4(c5ccc(Cl)cc5)CC4)nc(OCC(F)(F)F)n3)cc2)C(=O)O)cc1` [Compound 1167] the value was 0.01 to 10 nM.
The same measure, in the same setting: for `O=C(NCc1ccc(F)cc1F)C(=O)NC[C@H](NC(=O)c1ccc(Nc2nc(NC3(c4ccc(Cl)cc4)CC3)nc(OCC(F)(F)F)n2)cc1)C(=O)O` [Compound 1168] the value was 0.01 to 10 nM; for `O=C(NCc1cc(F)ccc1F)C(=O)NC[C@H](NC(=O)c1ccc(Nc2nc(NC3(c4ccc(Cl)cc4)CC3)nc(OCC(F)(F)F)n2)cc1)C(=O)O` [Compound 1169], 0.01 to 10 nM; for `O=C(NCc1c(F)cccc1F)C(=O)NC[C@H](NC(=O)c1ccc(Nc2nc(NC3(c4ccc(Cl)cc4)CC3)nc(OCC(F)(F)F)n2)cc1)C(=O)O` [Compound 1170], 0.01 to 10 nM.
As to `O=C(NCc1ccc(F)c(F)c1)C(=O)NC[C@H](NC(=O)c1ccc(Nc2nc(NC3(c4ccc(Cl)cc4)CC3)nc(OCC(F)(F)F)n2)cc1)C(=O)O` [Compound 1171], the concentration giving a half-maximal response (EC50) fell in the range of 0.01 to 10 nM.
Still for that read-out and setting: to `COc1ccc(CNC(=O)C(=O)NC[C@H](NC(=O)c2ccc(Nc3nc(NC4(c5ccc(Cl)cc5)CC4)nc(OCC(F)(F)F)n3)cc2)C(=O)O)c(OC)c1` [Compound 1172] belongs 0.01 to 10 nM; to `O=C(NCc1cc(F)cc(F)c1)C(=O)NC[C@H](NC(=O)c1ccc(Nc2nc(NC3(c4ccc(Cl)cc4)CC3)nc(OCC(F)(F)F)n2)cc1)C(=O)O` [Compound 1173], 0.01 to 10 nM; to `O=C(NC[C@H](NC(=O)c1ccc(Nc2nc(NC3(c4ccc(Cl)cc4)CC3)nc(OCC(F)(F)F)n2)cc1)C(=O)O)C(=O)NC1CCCCC1` [Compound 1174], 0.01 to 10 nM.
Same read-out and setting: to `O=C(NC[C@H](NC(=O)c1ccc(Nc2nc(NC3(c4ccc(Cl)cc4)CC3)nc(OCC(F)(F)F)n2)cc1)C(=O)O)C(=O)NC1CCCCCC1` [Compound 1175] belongs 0.01 to 10 nM.
Same read-out and setting: to `COc1ccc(CNC(=O)C(=O)NC[C@H](NC(=O)c2ccc(Nc3nc(NC4(c5ccc(Cl)cc5)CC4)nc(OCC(F)(F)F)n3)cc2)C(=O)O)cc1OC` [Compound 1176] belongs 0.01 to 10 nM.
For `O=C(NCC[C@H](NC(=O)c1ccc(Nc2nc(NC3(c4ccc(Cl)cc4)CC3)nc(OCC(F)(F)F)n2)cc1)C(=O)O)C(=O)NCc1cccc(F)c1F` [Compound 1177], the half-maximal effective concentration (EC50) was 0.01 to 10 nM.
On to `O=C(NCC[C@H](NC(=O)c1ccc(Nc2nc(NC3(c4ccc(Cl)cc4)CC3)nc(OCC(F)(F)F)n2)cc1)C(=O)O)C(=O)NCc1cccc(F)c1` [Compound 1178], for which the concentration for a half-maximal effect (EC50) was in the range of 0.01 to 10 nM.
Same read-out and setting: for `O=C(NCC[C@H](NC(=O)c1ccc(Nc2nc(NC3(c4ccc(Cl)cc4)CC3)nc(OCC(F)(F)F)n2)cc1)C(=O)O)C(=O)NC1CCCCC1` [Compound 1179] the value was 0.01 to 10 nM.
The same measure, in the same setting: to `O=C(NCC[C@H](NC(=O)c1ccc(Nc2nc(NC3(c4ccc(Cl)cc4)CC3)nc(OCC(F)(F)F)n2)cc1)C(=O)O)C(=O)NCC1CCCCC1` [Compound 1181] belongs 0.01 to 10 nM; to `COC1CCCCC1CNC(=O)C(=O)NCC[C@H](NC(=O)c1ccc(Nc2nc(NC3(c4ccc(Cl)cc4)CC3)nc(OCC(F)(F)F)n2)cc1)C(=O)O` (stereo partly shown) [Compound 1182], 0.01 to 10 nM; to `COc1cccc(CNC(=O)C(=O)NCC[C@H](NC(=O)c2ccc(Nc3nc(NC4(c5ccc(Cl)cc5)CC4)nc(OCC(F)(F)F)n3)cc2)C(=O)O)c1` [Compound 1183], 0.01 to 10 nM.
Still for that read-out and setting: to `COc1ccc(CNC(=O)C(=O)NCC[C@H](NC(=O)c2ccc(Nc3nc(NC4(c5ccc(Cl)cc5)CC4)nc(OCC(F)(F)F)n3)cc2)C(=O)O)cc1OC` [Compound 1184] belongs 0.01 to 10 nM.
